Data on 2 compounds can be found in US20070042938A1, “Use of dpiv and apn inhibitors for the treatment of dermatalogical diseases involving the hyperproliferation and modified differentiation conditions of fibroblasts” (priority 2003, published 2007).

The test has as its system human fibroblasts. Put plainly: DNA synthesis of human fibroblasts (3[H]-thymidine incorporation). In kind it is cell-based. The settings on record: fibroblasts of healthy donors, 48 h incubation with inhibitor, then 3[H]-methyl thymidine for further 6 h; dose-dependent (FIG. 3). The method, then:
Fibroblasts of healthy donors were incubated for 48 h together with the above-mentioned inhibitors, and the DNA synthesis was determined subsequently by a measurement of the ^3[H]-thymidine incorporation, as described by Reihold et al. (Reinhold D et al.: Inhibitors of dipeptidyl peptidase IV induce secretion of transforming growth factor β1 in PWM-stimulated PBMNC and T cells, Immunology 1997, 91: 354-360).
For measuring the dose-dependent effect of inhibitors of DP IV (Lys[Z(NO2)] thiazolidide) and of aminopeptidase N (Actinonin) on the DNA synthesis of human fibroblasts, cells were incubated for 48 h with the indicated concentrations of the inhibitors. Subsequently, ^3[H]-Methyl thymidine was added to the culture medium, and the amount of ^3[H]-thymidine incorporated into the DNA was measured after further 6 h.

The structures appear in SMILES notation.

As for `CCCCC[C@H](CC(=O)NO)C(=O)N[C@H](C(=O)N1CCC[C@H]1CO)C(C)C` [Actinonin], the “inhibition of the DNA synthesis of human fibroblasts” value is listed as “inhibited”.
Consider `N[C@@H](CCCCNC(=O)OCc1ccc([N+](=O)[O-])cc1)C(=O)N1CCSC1` [Lys[Z(NO2)] thiazolidide], for which the “inhibition of the DNA synthesis of human fibroblasts” value was “inhibited”.
